# Where “and” joins values, the source holds several entries; their conditions need not be identical. Identical values can stand only once. Like-named read-outs stand apart in the source and are kept apart here.
# Experiments:
# [1] = system: MV-4-11; assay: Cell Titer-Blue cell viability assay, MV-4-11 (AML); type: cell-based; conditions: Homo sapiens, MV4-11; AML cell line MV-4-11, 72 hrs exposure
# Experimental: (§1) Anti-cancer efficacy of exemplary compounds of this application was assessed in vitro in different cancer cell lines. Cell viability was examined following treatment at various concentration of inhibitor (0.097656-50 μM) using a cell Titer-Blue cell viability assay. 1×10^4 cells/well were plated in 96-well assay plates in culture medium. All cells were grown in DMEM, IMDM and RPMI-1640 supplemented with 10% FBS. After 24 hrs, test compounds and vehicle controls were added to appropriate wells so the final volume was 100 μl in each well. The cells were cultured for the desired test exposure period (72 hrs) at 37° C. and 5% CO2. The assay plates were removed from 37° C. incubator and 20 μl/well of CellTiter-Blue® Reagent was added. The plates were incubated using standard cell culture conditions for 1-4 hours and the plates were shaken for 10 seconds and fluorescence recorded at 560/590 nm.
# (§2) Compound I and II were tested for their efficacy against selected chronic myelogenous leukemia, acute myeloid leukemia and healthy human lung cell lines using the protocol stated above.
# [2] = Intrinsic clearance in mouse hepatocyte; type: in vitro ADME; conditions: mouse, mouse hepatocytes, time points 0-120 minutes, read-out: In vitro T1/2 in mouse hepatocytes
# Experimental: (§3) A stock of 100 μM test compound was prepared by diluting the 10 mM test compound in DMSO with a solution of 50% acetonitrile and 50% water. In a 96-well non-coated plate, 198 μL of hepatocytes was pipetted, and the plate was placed in the incubator on an orbital shaker to allow the hepatocytes to warm for 10 minutes. To this solution was added 2 μL of the 100 μM test compound to start the reaction, and the plate was placed on an orbital shaker. At time points of 0, 15, 30, 60, 90 and 120 minutes, the aliquots were mixed with a solution of acetonitrile and internal standard (100 nM alprazolam, 200 nM labetalol, and 2 μM ketoprofen) to terminate the reaction. The reaction solution was then vortexed for 10 minutes and centrifuged at 4,000 rpm for 30 minutes at 4° C. […] of the supernatant was transferred to one new 96-well plate, centrifuged at 4,000 rpm for 30 minutes at 4° C., and 100 μL of the supernatant was transferred to a new 96-well plate ensuring the pellet was not disturbed. 100 μL of ultrapure water was added to all samples for analysis by LC-MS/MS.
# (§4) The in vitro half-life (T1/2) was determined by the linear regression of the natural logarithm of the remaining percentage of the parent drug vs. incubation time curve. The slope value (k) of the curve was then substituted into the following equation to determine the in vitro half-life
# (§5) The in vitro intrinsic clearance (in vitro CLint, in μL/min/10^6 cells) was determined by the following equation.
# (§6) Where volume of incubation=0.2 mL and number of hepatocytes per well=0.1×10^6 cells.
# (§7) Bioanalytical method: Column—Phenomenex Synergi 4μ Hydro-PR 80A (2.0×30 mm).
# (§8) Mobile phase—0.1% formic acid in water (solvent A) and 0.1% formic acid in acetonitrile (solvent B). Column temperature—room temperature. Injection volume—10 μL. MS analysis—API 4000 instrument from AB Inc (Canada) with an ESI interface.
# [3] = system: MRC-9; assay: Cell Titer-Blue cell viability assay, MRC-9 (healthy cell line); type: cell-based; conditions: Homo sapiens, MRC9; healthy cell line MRC-9, 72 hrs exposure
# Experimental: as §1, §2
# [4] = system: K562; assay: Cell Titer-Blue cell viability assay, K562 (CML); type: cell-based; conditions: Homo sapiens; CML cell line K562, 72 hrs exposure
# Experimental: as §1, §2
# [5] = system: HaCat; assay: Cell Titer-Blue cell viability assay, HaCat (healthy cell line); type: cell-based; conditions: Homo sapiens, 72 hrs exposure
# Experimental: as §1
# [6] = system: Mouse Hepatocyte; assay: Intrinsic clearance in mouse hepatocyte; type: in vitro ADME; conditions: time points 0-120 minutes
# Experimental: as §3, §4, §5, §6, §7, §8
# [7] = system: MOLM-13; assay: Cell Titer-Blue cell viability assay, MOLM-13 (AML); type: cell-based; conditions: Homo sapiens; AML cell line MOLM-13, 72 hrs exposure
# Experimental: as §1, §2
# [8] = Bioavailability / PK study in CD-1 mice (IP injection); type: in vivo; conditions: 20 mg/kg IP, plasma
# Experimental: The study groups for PK for compound I, II and comparative experiments with AC-3-19 and JPX-0371 experiments are shown in Table 2.
# All animals had free access to food and water. Dose formulation processing during dosing: The formulations will be kept stirred at room temperature for at least 15 min before dosing and during the dosing. Pharmacokinetics (PK) Schedule shown below in Table 3.
# Approximately 0.03 mL blood was collected at each time point. Blood of each sample was transferred into plastic micro centrifuge tubes containing heparin-Na as anticoagulant. Collection tubes with blood samples and anticoagulant were inverted several times for proper mixing of the tube contents and then placed on wet ice prior to centrifugation for plasma. The blood samples were centrifuged at 4000 g for 5 min at 4° C. to obtain plasma. The samples were stored in a freezer at −75±15° C. prior to analysis. The study used CD-1 mice (male), n=3, at age approx. 6-8 weeks (20-30 g).
# Concentrations of compounds in the plasma samples were analyzed using a LC-MS/MS method. WinNonlin (Phoenix™, version 6.1). Other similar software could have also been used for pharmacokinetic calculations. Pharmacokinetic parameters were calculated, whenever possible from the plasma concentration versus time data: IP parameters including T1/2, Cmax, Tmax, AUClast, AUCinf, MRT are calculated.
# [9] = system: NIH 3T3; assay: Cell Titer-Blue cell viability assay, NIH 3T3; type: cell-based; conditions: Mus musculus, NIH3T3; NIH 3T3 cells, 72 hrs exposure
# Experimental: as §1
# [10] = system: non-transformed cells (NIH 3T3 cells, STAT3 null mouse embryo fibroblasts, or mouse thymus stromal cells); conditions: cited from earlier work
# [11] = system: xenograft models of lung or breast cancer; conditions: murine xenograft models of lung or breast cancer; cited from earlier work
# [12] = system: phosphorylation of Shc, Src, Jak-1/2, Erk1/2 or Akt; conditions: cited from earlier work
# [13] = male, CD-1, mouse, ip, 20 mg/kg, individual animal
# [14] = male, CD-1, mouse, ip, 20 mg/kg, mean N=3
# [15] = male, CD-1, mouse, ip, 20 mg/kg, read-out: t1/2 (converted)
compound,measurement,setting,value
CC(C)(C)c1cc(CN(C(=O)CN(Cc2ccc(Cl)cc2)S(=O)(=O)c2c(F)c(F)c(F)c(F)c2F)c2ccc(C(=O)O)cc2)cc(C2CC2)c1 [Compound II],IC50,[1],480 nM
same,half-life at 1 µM,[2],0.767 h
CC(C)(C)c1cc(CN(C(=O)CN(Cc2ccc(Cl)cc2)S(=O)(=O)c2c(F)c(F)c(F)c(F)c2F)c2ccc(C(=O)O)c(O)c2)cc(C2CC2)c1 [Compound I],IC50,[1],560 nM
same,IC50,[3],30000 nM
same,IC50,[4],4100 nM
same,IC50,[5],20000 nM
same,half-life at 1 µM,[2],1.67 h
same,In vitro T1/2 in mouse hepatocytes,[6],1.68 h
same,IC50,[7],1700 to 2500 nM
same,AUC Extr,"[8]; individual animal, 20 mg/kg",0.346% and 0.385% and 0.325%
same,AUCInf,"[8]; individual animal, 20 mg/kg",7245 ng·h/mL and 6566 ng·h/mL
same,AUClast,"[8]; individual animal, 20 mg/kg",7217 ng·h/mL and 6545 ng·h/mL
same,Cmax,"[8]; individual animal, 20 mg/kg",3290 ng/mL and 3480 ng/mL
same,MRT,"[8]; individual animal, 20 mg/kg",1.99 h and 1.81 h
same,t1/2,"[8]; individual animal, 20 mg/kg",3.91 h and 3.97 h
same,AUC Extr,[8]; mean N=3,0.352%
same,AUC(0-inf),[8]; [13],5820 ng·h/mL
same,AUC(0-t),[8]; [13],5800 ng·h/mL
same,Cmax,"[8]; male, CD-1, mouse, ip, 20 mg/kg, individual animal, read-out: Cmax",3010 ng/mL
same,MRT,"[8]; male, CD-1, mouse, ip, 20 mg/kg, individual animal, read-out: MRT",1.87 h
same,half-life,"[8]; male, CD-1, mouse, ip, 20 mg/kg, individual animal, read-out: t1/2 (converted)",3.92 h
same,AUC(0-inf),[8]; [14],6540 ng·h/mL
same,AUC(0-t),[8]; [14],6520 ng·h/mL
same,Cmax,"[8]; male, CD-1, mouse, ip, 20 mg/kg, mean N=3, read-out: Cmax",3260 ng/mL
same,MRT,"[8]; male, CD-1, mouse, ip, 20 mg/kg, mean N=3, read-out: MRT",1.89 h
same,half-life,"[8]; male, CD-1, mouse, ip, 20 mg/kg, mean N=3, read-out: t1/2 (converted)",3.93 h
same,half-life,"[8]; male, CD-1, mouse, ip, 20 mg/kg, read-out: calculated T1/2 (FIG. 6) (converted)",3.9 h
same,Tmax,"[8]; male, mouse, mean N=3",0.5 h
"O=C(O)c1ccc(N(Cc2cccc(C3CCCC3)c2)C(=O)CN(Cc2ccc(Cl)cc2)S(=O)(=O)c2c(F)c(F)c(F)c(F)c2F)cc1O [JPX-062, 4-(2-((N-(4-chlorobenzyl)-2,3,4,5,6-pentafluorophenyl)sulfonamido)-N-(3-cyclopentylbenzyl)acetamido)-2-hydroxybenzoic acid]",IC50,[1],7900 nM
same,IC50,[7],6400 nM
same,half-life,[8]; [15],0.94 h
"O=C(O)c1ccc(N(Cc2cccc(C3CCCC3)c2)C(=O)CN(Cc2c(F)c(F)c(F)c(F)c2F)S(=O)(=O)c2c(F)c(F)c(F)c(F)c2F)cc1 [JPX-303, 4-(N-(3-cyclopentylbenzyl)-2-((2,3,4,5,6-pentafluoro-N-((perfluorophenyl)methyl)phenyl)sulfonamido)acetamido)benzoic acid]",IC50,[9],5190 nM
same,IC50,[1],210 nM
same,IC50,[4],2600 nM
same,half-life,[8]; [15],0.35 h
"O=C(O)c1ccc(N(Cc2cccc(C3CCCC3)c2)C(=O)CN(Cc2ccc(Cl)cc2)S(=O)(=O)c2c(F)c(F)c(F)c(F)c2F)cc1 [JPX-313, 4-(2-((N-(4-chlorobenzyl)-2,3,4,5,6-pentafluorophenyl)sulfonamido)-N-(3-cyclopentylbenzyl)acetamido)benzoic acid]",IC50,[1],930 nM
same,IC50,[7],1100 nM
same,half-life,[8]; [15],0.31 h
O=C(O)c1ccc(N(Cc2cccc(C3CCCC3)c2)C(=O)CN(Cc2c(F)c(F)c(F)c(F)c2F)S(=O)(=O)c2c(F)c(F)c(F)c(F)c2F)cc1O [JPX-320],IC50,[1],1100 nM
same,IC50,[7],800 nM
same,half-life,[8]; [15],0.861 h
BP-1-102,effect on non-transformed cells,[10],no effect
same,anti-tumor effect in vivo,[11],dramatic regression in tumor volumes
same,"effect on phosphorylation of Shc, Src, Jak-1/2, Erk1/2 or Akt",[12],little or no effect

# Reference: patent US20220089531A1, “NEW […] ACID DERIVATIVES, PHARMACEUTICALLY ACCEPTABLE SALT THEREOF, COMPOSITION THEREOF AND METHOD OF USE THEREOF” (THE GOVERNING COUNCIL OF THE UNIVERSITY OF TORONTO, priority 2018, published 2022)
